Test system: C2C12 cells
Assay: Glucose uptake (2-NBDG) in C2C12 cells
Assay type: cell-based
Conditions: compared with Rosiglytazone and Metformin
Description: In terms of capacity of glucose uptake in C2C12 cells, the compound (Compound 15) of Example 14 of the present invention was compared with the existing Rosiglytazone and Metformin which were used or are currently used as a therapeutic agent for diabetes. The C2C12 cell was cultured in a Dulbecco's modified eagle medium (DMEM) supplemented with 10% fetal bovine serum (FBS), penicillin (120 unit/mL), and streptomycin (75 μg/mL), the medium used for differentiation was a DMEM medium supplemented with 1% horse serum, and the C2C12 cell was cultured in the DMEM medium for 4 days. The cell thus cultured was treated with Compound 15 in a low-glucose, serum-free medium supplemented with 2-[N-(7-nitrobenz-2-oxa-1,3-diazol-4-yl)amino]-2-deoxy-d-glucose (2-NBDG) for 24 hours to measure the glucose absorbance at an excitation wavelength of 485 nm and an emission wavelength of 535 nm using a fluorescent detector. The same experiment was performed on Rosiglytazone and Metformin.

In the case of CCOc1ccc(C2COc3c(ccc4c3CCC(C)(C)O4)C2)c(O)c1 (stereo not shown) [Compound 15, 3-(2-hydroxy-4-ethoxyphenyl)-8,8-dimethyl-2,3,4,8,9,10-hexahydropyrano [2,3-f] chromene], the “capacity of promoting glucose uptake, in words” value is reported as “better than that of the existing therapeutic agent for diabetes”.

Source: US9783551B2, “Pyranochromenyl phenol derivative, and pharmaceutical composition for treating metabolic syndrome or inflammatory disease” (GLACEUM, INC., priority 2013, dated 2017)
